These results are taken from publication PMC7763444, “Bioactive Steroids from the Red Sea Soft Coral Sinularia polydactyla” (Marine Drugs, 2020).

The test system of series [1] is HeLa (human cervical cancer cell line). Put plainly: Cytotoxicity, resazurin assay, 72 h. The note with it: read-out: Cytotoxicity (IC50) HeLa. In general terms: The colour change of resazurin is a common sign of viable cells or microbes.
Experimental: (§1) Initially, the cytotoxic activity of metabolites 3–7, 9–12, 14–20, and 22–26 was evaluated in human cancer and normal cells after 72 h of treatment. Human cervical cancer (HeLa), human breast adenocarcinoma (MCF7) cell lines, and human normal fibroblasts (BJ) were used for the screening.
(§2) The tested compounds were dissolved in DMSO to afford 10 mM stock solutions. Human cervical carcinoma (HeLa) and human breast adenocarcinoma (MCF7) cell lines were purchased from European Collection of Authenticated Cell Cultures (ECACC, Salisbury, UK) and cultivated in Dulbecco’s Modified Eagle Medium (DMEM) (Merck, Darmstadt, Germany), as previously reported [27]. […] All cells were maintained in a humidified CO2 incubator at 37 °C using the standard trypsinization procedure twice or three times a week. […] All cells were maintained in a humidified CO2 incubator at 37 °C using the standard trypsinization procedure twice or three times a week.
(§3) In cytotoxicity assays, cancer cells were treated with six different concentrations of each tested compound for 72 h. Cells were stained with resazurin and IC50 values were calculated as previously reported [26]. Triplicates from at least three independent experiments were used.
In series [2] the test system is MCF7 (human breast adenocarcinoma cell line). Briefly: Cytotoxicity, resazurin assay, 72 h. The note with it: MCF7, 72 h, read-out: Cytotoxicity (IC50) MCF7.
Experimental: as §1, §2, §3
Series [3] deals with BJ (human normal fibroblasts).
Experimental: as §1, §3
The nature of another series: in vitro. The note with it: human.
Another series concerns androgen receptor (AR). Briefly: AR-transcriptional reporter assay (luciferase) in 22Rv1-ARE14 cells. As to conditions: 24 h; for Luciferase activity (AR-mediated transcription), in words: six concentrations, already at submicromolar concentrations.
In series [4] the test system is human umbilical vein endothelial cells (HUVEC). Briefly: Migration scratch assay. As to conditions: 20 µM, 20 h of treatment. The series is classed as cell-based. As for the experimental part:
Subsequently, we examined whether the isolated steroids could influence angiogenesis or inflammation in vitro. […] Only non-cytotoxic concentrations in HUVECs were used for the scratch assay.
The scratch test was performed with HUVEC cells and evaluated after 20 h of treatment, as previously reported.

Experimental for androgen receptor (AR): Therefore, we further analyzed the influence of the isolated steroids on AR-mediated transcription. […] Control cells were grown in charcoal-stripped serum medium (CSS). Cells were stimulated with either 1 nM methyltrienolone R1881 (R) or with the tested compounds in six different concentrations for 24 h in CSS. The luciferase activity was measured in the cell lysate. […] The experiment was repeated three times in triplicates.
AR-transcriptional reporter assays were performed on 22Rv1-ARE14 cells after 24 h of incubation, as previously described [22].
Experimental for in vitro: as §1, §3

In general, IC50 refers to the concentration at which inhibition is half-maximal. With `CC(C)C(C)/C=C\[C@@H](C)[C@H]1CC[C@H]2[C@]3(O)CC[C@H]4[C@H](C)[C@@H](O)CC[C@]4(C)[C@H]3[C@@H](O)[C@H](O)[C@]12C` (stereo partly drawn) [Compound 14, (22Z)-4α,24ξ-dimethyl-5α-cholest-22-en-3β,8β,11β,12α-tetraol], the figures for the IC50 in series [1] and in series [2] were greater than 50 µM and 29.1 ± 5 µM, respectively. The “Cytotoxicity toward normal cells (BJ), in words” value (from here on “Cytotoxicity toward normal cells”) in series [3] is “absence of cytotoxicity”. This molecule registered an IC50 at 72 h in “in vitro” greater than 50 µM.

As to `C=C(CCC(C)C1CCC2C1(C)CC(O)C1C3(C)CCC(O)C(C)C3CCC21O)C(C)C` (stereo not drawn) [Compound 9, 4α,24-dimethyl-5α-cholest-24(28)-en-3β,8β,11β-triol], the IC50 in series [1] was determined as 25.9 ± 4.9 µM; in series [2], 36.4 ± 5.7 µM. The molecule further gave an IC50 at 72 h in the series “in vitro” of 18.3 ± 4 µM.

As to `C=C(CCC(C)C1CCC2C3(O)CCC4C(C)C(O)CCC4(C)C3CCC12CO)C(C)C` (stereo not drawn) [Compound 15, 4α,24-dimethyl-5α-cholest-24(28)-en-3β,8β,18-triol], the IC50 in series [1] is 19 ± 4.3 µM; in series [2], 18.9 ± 0.1 µM. Also, the “Cytotoxicity toward normal cells” value in series [3] is reported as “absence of cytotoxicity”. This molecule also gave an IC50 at 72 h in “in vitro” greater than 50 µM.

With `C=C(CCC(C)C1CCC2C3C(=O)C=C4CC(O)CCC4(CO)C3CCC12C)C(C)C` (stereo not drawn) [Compound 24, 7-oxo-24-methyl-cholesta-5,24(28)-dien-3β,19-diol], the results for the IC50 in series [1] and in series [2] were 21.4 ± 2 µM and 31.7 ± 0.3 µM, respectively. For the same molecule, half-maximal inhibition in “in vitro” (IC50 at 72 h) was put at 45.9 ± 2.8 µM.

On to `C=C(CCC(C)C1CCC2C3CC=C4CC(O)CCC4(CO)C3CCC12C)C(C)C` (stereo not drawn) [Compound 19, 24-methyl-cholesta-5,24(28)-dien-3β,19-diol], for which the IC50 in series [1] and in series [2] was greater than 50 µM each time. This molecule also displayed an IC50 at 72 h in “in vitro” greater than 50 µM.

As for `C=C(CCC(C)C1CCC2C3=CC(O)C4(O)CC(O)CCC4(C)C3CCC21C)C(C)C` (stereo not drawn) [Compound 25, 24-methyl-cholesta-7,24(28)-dien-3β,5α,6β-triol], the IC50 in series [1] and in series [2] was greater than 50 µM in each case. Also, the IC50 at 72 h in “in vitro” is greater than 50 µM.

As for `CC(C)[C@@H](C)/C=C/[C@@H](C)[C@H]1CC[C@H]2[C@]3(O)CC[C@H]4[C@H](C)[C@@H](O)CC[C@]4(C)[C@H]3CC[C@]12CO` [Compound 16, (22E,24R)-4α,24-dimethyl-5α-cholest-22-en-3β,8β,18-triol], the IC50 in series [1] was 32.9 ± 5.2 µM. Moreover, the IC50 in series [2] amounted to 33.8 ± 1 µM. In addition, in the series on androgen receptor (AR), the “Concentration dependence of AR inhibition” value is on record as “increased inhibition of AR” and the “Luciferase activity (AR-mediated transcription), in words” value (shortened to “Luciferase activity”) was “clearly reduced luciferase activity in a dose-dependent manner”. The molecule further came in with an IC50 at 72 h in “in vitro” of 23.2 ± 1.4 µM.

Regarding `CC(C)[C@@H](C)/C=C/[C@@H](C)[C@H]1CC[C@@H]2[C@]1(C)C[C@H](O)[C@@H]1[C@@]3(C)CC[C@H](O)[C@@H](C)[C@@H]3CC[C@@]21O` [Compound 10, (22E,24R)-4α,24-dimethyl-5α-cholest-22-en-3β,8β,11β-triol], the IC50 in series [1] turned out to be 32.9 ± 6.8 µM; in series [2] it was 32.7 ± 1.3 µM. The “Concentration dependence of AR inhibition” value in the series on androgen receptor (AR) was “increased inhibition of AR”. Moreover, the IC50 at 72 h in the series “in vitro” worked out at 4.1 ± 1.9 µM.

Consider `CC(C)[C@@H](C)/C=C/[C@@H](C)[C@H]1CC[C@@H]2[C@]1(C)CC[C@@H]1[C@@]3(C)CC[C@H](O)[C@@H](C)[C@@H]3CC[C@@]21O` [Compound 6, (22E,24R)-4α,24-dimethyl-5α-cholest-22-en-3β,8β-diol], for which the IC50 in series [1] and in series [2] was greater than 50 µM throughout. This molecule came in with a 50% inhibitory concentration (IC50) at 72 h in “in vitro” greater than 50 µM.

In the case of `C=C(C=CC(C)C1CCC2C3CC=C4CC(O)CCC4(CO)C3CCC12C)C(C)C` (stereo not drawn) [Compound 20, (22E)-24-methyl-cholesta-5,22,24(28)-trien-3β,19-diol], in series [1], the IC50 was greater than 50 µM. In series [2], the IC50 is greater than 50 µM. Moreover, in the series with androgen receptor (AR), the “Concentration dependence of AR inhibition” value is given as “increased inhibition of AR” and the “Luciferase activity” value is “clearly reduced luciferase activity in a dose-dependent manner”. This molecule displayed an IC50 at 72 h in “in vitro” greater than 50 µM.

For `C=C(C(=O)CC(C)C1CCC2C1(C)CCC1C3(C)CCC(O)C(C)C3CCC21O)C(C)C` (stereo not drawn) [Compound 7, 23-oxo-4α,24-dimethyl-5α-cholest-24(28)-en-3β,8β-diol], the IC50 in series [1] and in series [2] was greater than 50 µM throughout. This molecule gave an IC50 at 72 h in the series “in vitro” greater than 50 µM.

With `CC(C)[C@@H](C)/C=C/[C@@H](C)[C@H]1CC[C@H]2[C@@H]3CC[C@H]4[C@H](C)[C@@H](O)CC[C@]4(C)[C@H]3CC[C@]12C` [Compound 4, (22E,24R)-4α,24-dimethyl-5α-cholest-22-en-3β-ol], the IC50 in series [1] and in series [2] was greater than 50 µM in each case. In addition, in “in vitro”, the IC50 at 72 h was greater than 50 µM.

For the molecule `C=C(CCC(C)C1CCC2C3C(O)C=C4CC(O)CCC4(C)C3CCC12C)C(C)C` (stereo not drawn) [Compound 18, 24-methyl-cholesta-5,24(28)-dien-3β,7β-diol], the half-maximal inhibitory concentration (IC50) amounted to 22.6 ± 0.4 µM in series [1] and 28.6 ± 5.3 µM in series [2]. Further, the “Cytotoxicity toward normal cells” value in series [3] is given as “absence of cytotoxicity”. For the same molecule, in “in vitro”, the IC50 at 72 h was greater than 50 µM.

As for `C[C@]12CC[C@H](O)CC1=CC[C@@H]1[C@@H]2CC[C@]2(C)C(n3cnc4ccccc43)=CC[C@@H]12` [Galeterone, reference compound], in the series with androgen receptor (AR) (10 µM, 22Rv1-ARE14), the “Inhibition of AR-regulated transcription” value is given as 22%.

Take `C=C(C(C)C)C(CC(C)C1CCC2C1(C)CC(O)C1C3(C)CCC(O)C(C)C3CCC21O)OC(C)=O` (stereo not drawn) [Compound 12, 23ξ-acetoxy-4α,24-dimethyl-5α-cholest-24(28)-en-3β,8β,11β-triol]: the “Inhibition of HUVEC migration” value in series [4] is “partially inhibited”. For the same molecule, the IC50 in series [1] was 15.7 ± 2 µM; in series [2] it was 25.3 ± 6.5 µM. Further, in the series with androgen receptor (AR), the “Luciferase activity” value is “clearly reduced luciferase activity in a dose-dependent manner”. Also, the “Cytotoxicity toward normal cells” value in series [3] is given as “absence of cytotoxicity”. The IC50 at 72 h in “in vitro” was greater than 50 µM.

On to `C=C(CCC(C)C1CCC2C1(C)CCC1C3(C)CCC(O)C(C)C3CCC21O)C(C)C` (stereo not drawn) [Compound 5, 4α,24-dimethyl-5α-cholest-24(28)-en-3β,8β-diol], for which the IC50 in series [1] and in series [2] was greater than 50 µM each time. The IC50 at 72 h in “in vitro” is greater than 50 µM.

Turning to `CC(C)[C@@H](C)/C=C/[C@@H](C)[C@H]1CC[C@H]2C3=C[C@@H](O)[C@@]4(O)C[C@@H](O)CC[C@]4(C)[C@H]3CC[C@]12C` [Compound 26, (22E,24R)-24-methyl-cholesta-7,22-dien-3β,5α,6β-triol], the IC50 in series [1] and in series [2] was greater than 50 µM each time. Further, the IC50 at 72 h in “in vitro” is greater than 50 µM.

In the case of `C=C(CCC(C)C1CCC2C3CCC4C(C)C(O)CCC4(C)C3CCC12C)C(C)C` (stereo not drawn) [Compound 3, 4α,24-dimethyl-5α-cholest-24(28)-en-3β-οl], the IC50 in series [1] and in series [2] was greater than 50 µM in each case. In “in vitro”, this molecule gave an IC50 at 72 h greater than 50 µM.
